Among the data in PubChem BioAssay (NCI) are TGI and GI50 values, retold here.

Test in all cases: NCI anticancer screen, dose series, 48 h
The test system of assay [1] is SN12C renal.
Assay [2] relates to OVCAR-3 ovarian.
In assay [3] the test system is A549 NSCLC.
Assay [4] concerns K-562 leukemia.
Assay [5] has as its system OVCAR-4 ovarian.
Assay [6] relates to CAKI-1 renal.
Assay [7] concerns HT29 colon.
In assay [8] the test system is HL-60(TB) leukemia.
Assay [9] concerns A498 renal.

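Values below derive from 48-hour exposures of cells grown in 96-well plates, with endpoints linearly interpolated between the two concentrations bracketing the appropriate inhibition level. At the GI50, growth is halved. TGI marks complete inhibition of growth.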 A value given as a limit tells only on which side of the number the result lay.

Turning to `COc1cc2c(cc1OC)[C@@H](C(O)c1ccccc1)NCC2` (stereo partly drawn), the TGI in assay [1], in [2], in [3], in assay [4], in assay [5] and in assay [6] was more than 100 µM in each case. Besides, the TGI in assay [7], in assay [8] and in assay [9] was more than 100 µM each time.
As for `CC[O-].CC[O-].O=Nc1ccc2cc([O-])ccc2c1.O=Nc1ccc2cc([O-])ccc2c1.[Ti+4]`, the GI50 is 1.74 µM in assay [1]; 1.44 µM in assay [2]; 2.14 µM in assay [3]; 2.85 µM in assay [4]; 1.76 µM in assay [5]; 3.76 µM in assay [6]. Also, the values for the GI50 in assay [8] and in [9] were 1.2 µM and 9.01 µM, respectively. In addition, the TGI in assay [1] is 3.16 µM; in assay [2], 3.82 µM; in [3] it was 4.85 µM; in [4] it was more than 100 µM; in assay [5], 3.2 µM; in assay [6], 12.2 µM. For the same compound, the TGI amounted to 3.71 µM in assay [8] and 27.3 µM in [9].
`COc1ccc(/C=C2\CNC/C(=C\c3ccc(OC)cc3)C2=O)cc1`: the TGI was more than 100 µM in [1]; more than 100 µM in assay [2]; more than 100 µM in assay [3]; 65.2 µM in assay [4]; more than 100 µM in [5]; 81.2 µM in [6]. The TGI in assay [7] is more than 100 µM; in assay [8], 38.5 µM.
On to `COc1ccc(C=NC23CC4CC(CC(C4)C2)C3)cc1`, for which the TGI in assay [1], in [2], in assay [3], in assay [4], in [5] and in [6] was more than 100 µM in each case. Also, the TGI in assay [7], in assay [8] and in [9] was more than 100 µM throughout.
Consider `COc1ccc2nc(NC(=O)C(=O)CC(=O)c3ccc(Cl)cc3)sc2c1`, for which the TGI is more than 100 µM in assay [1]; more than 100 µM in [2]; more than 100 µM in [3]; 53.2 µM in [5]; more than 100 µM in [6]; more than 100 µM in assay [7]. Also, the TGI in [8] and in [9] was more than 100 µM throughout.
As to `CC(=O)O[C@@H]1CC(C)C2CC2C2=C(C(O)OC2O)[C@@H]1C(C)CCC=C(C)C` (stereo partly drawn), the TGI in assay [1] was determined as 35.9 µM; in assay [3], 51.7 µM; in assay [4], 66.9 µM; in assay [5], 71.2 µM; in [6], 58.3 µM; in assay [7] it was 35.5 µM. Moreover, the TGI in assay [8] is 43.1 µM; in assay [9] it was more than 100 µM.
As to `O=C(c1ccc(NCN2C(=O)CCC2=O)cc1)c1ccc(NCN2C(=O)CCC2=O)cc1`, the TGI in assay [1], in [2], in assay [3], in assay [4], in assay [5] and in assay [7] was more than 100 µM throughout. For the same compound, in [8], the TGI was determined as 49.5 µM.
For the compound `O=C(O)c1ccc([N+](=O)[O-])c2c(=O)c3ccccc3[nH]c12`, the TGI in assay [1], in assay [3], in assay [4], in assay [5], in assay [6] and in assay [7] was more than 100 µM in each case. The TGI in assay [8] and in assay [9] was more than 100 µM in each case.
As to `CC(=O)OC[C@@H]1[C@H]2CC(=O)O[C@H]2C[C@H]1OC(C)=O`, the TGI in assay [1], in assay [2], in assay [3], in assay [5], in [6] and in assay [7] was more than 100 µM throughout. Further, the TGI in assay [8] and in assay [9] was more than 100 µM throughout.
With `O=C1NC2(O)c3ccccc3C(=O)C2(O)N1c1ccccc1` (stereo not drawn), the TGI in assay [2], in [3], in assay [4], in assay [5], in assay [6] and in assay [7] was more than 100 µM each time. Besides, in assay [8], the TGI was more than 100 µM.
In the case of `Cc1nn2c(/C=C3/C(=O)Nc4ccccc43)c(-c3ccc(Cl)cc3)nc2s1`, the GI50 was 13.4 µM in [2]; 16.2 µM in assay [3]; more than 50 µM in assay [4]; 13.3 µM in assay [6]; 11.9 µM in assay [7]; more than 50 µM in assay [9]. Besides, the TGI in assay [2] is more than 50 µM; in assay [3], more than 50 µM; in assay [4], more than 50 µM; in assay [6], more than 50 µM; in assay [7] it was 27 µM; in assay [9] it was more than 50 µM.
As for `N#CC1(c2nc3ccccc3o2)C(=O)C(=O)N(c2ccc(Cl)c(Cl)c2)C(=O)C1=O`, the TGI in [1], in assay [2], in assay [3], in assay [4], in [5] and in assay [6] was more than 100 µM each time. For the same compound, the TGI in assay [7] and in [8] was more than 100 µM throughout.
